The results in this text go back to patent US10941114B2, “Small molecule lipid II inhibitors” (University Of Maryland, Baltimore, priority 2015, dated 2021).

Converted amounts (≈) assume the structure as drawn. Read-outs that look alike come from different tables or passages of the source.

One series relates to Staphylococcus aureus. Nature of the series: Antibacterial activity assay (MIC, broth dilution). The series is classed as cell-based. Particulars: for MIC: Staphylococcus aureus.
The test system of the next series is Acinetobacter baumannii. Briefly: Antibacterial activity assay (MIC, broth dilution). The format is cell-based. The settings on record: for MIC: Acinetobacter baumannii. The essentials:
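Broth dilution and broth microdilution following CLSI standards (M07, eighth and tenth editions). MIC taken as the lowest compound concentration preventing visible bacterial growth.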

A short description of series [1]: Cytotoxicity testing (CC50, MTS assay). The settings on record: human.
The next series concerns Enterococcus faecium. Nature of the series: Antibacterial activity assay (MIC, broth dilution). The format is cell-based. In outline: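 Broth dilution MIC per CLSI (M07-A10) in cation-adjusted Mueller Hinton broth with 10% brain-heart infusion; MIC is the lowest concentration preventing visible growth, in μg/mL. Some compounds were run by broth microdilution.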
Series [2] in a line: Pharmacokinetic study in mice (plasma concentration by LC/MS/MS).
Series [3] in a line: Maximum Tolerated Dose (MTD) and in vivo toxicity at the MTD. The settings on record: dose-escalation; final MTD.
The conditions of series [4]: mouse, in vivo, iv, 10 mg/kg.
A further series concerns HeLa cells. Briefly: Cytotoxicity testing (CC50, MTS assay). The settings on record: HeLa cells.
Series [5] can be described thus: Surface Plasmon Resonance determination of Lipid II binding. Particulars: SPR; FIG. 16. As to the method:
Short-chain water-soluble LII containing a lipid tail of three isoprene units (3-LII) was generated and purified essentially according to methods known in the art. See Breukink et al., Lipid II is an intrinsic component of the pore induced by nisin in bacterial membranes. J. Biol. Chem. 278(22):19898-19903, 2003, the contents of which are hereby incorporated by reference. Typically, M. flavus vesicles (120 μmol lipid-Pi) were incubated together with 500 μmol UDP-GlcNAc, 500 μmol UDP-MurNAC-pentapeptide and 400 μmol farnesyl phosphate in 100 mM Tris-HCl pH 8.0, 5 mM MgCl2. The incubation period was approximately two hours at room temperature for 3-LII (3-P). The synthesis of 3-Lipid II was followed by RP-8 reversed phase TLC (Merck™) developed with 75% methanol. For purification, the membranes were removed by centrifugation at 40,000×g; the supernatant was collected and loaded on a C18 HPLC column and eluted with a linear gradient from 50 mM ammonium bicarbonate to 100% methanol in 30 minutes. Farnesyl-Lipid II (3-Lipid II) eluted at approximately 60% methanol. Its identity was confirmed by mass spectroscopy.
Surface Plasmon Resonance binding experiments were carried out on a BIAcore T100 system (BIAcore™ Inc., Piscataway, N.Y.) at 25° C. The assay buffer was 10 mM HEPES, 150 mM NaCl, 0.05% surfactant P20, pH 7.4 (+3 mM EDTA) supplemented with 10% DMSO. 3-Lipid II (50 RUs) was immobilized on CMS sensor chips using the amine-coupling chemistry recommended by the manufacturer. For initial determination of binding, compounds were introduced into the flow-cells (30.mu·1/min) in the running buffer at 10 μM. Resonance signals were corrected for nonspecific binding by subtracting the background of the control flow-cell. Binding to immobilized 3-LII on the chip surface was determined and scored “yes” in Table 5 when more than 20 Resonance Units or RUs were detected. Detection of less than 20 RUs was scored as “no”, meaning no significant binding to LII. After each analysis, the sensor chip surfaces were regenerated with 50 mM NaOH for 30 seconds at a flow rate 100 μL/min, and equilibrated with the buffer prior to next injection. For binding kinetics studies, binding isotherms were analyzed with manufacturer-supplied software for BIAcore™ T100.

Another series deals with Enterococcus faecalis. Nature of the series: Antibacterial activity assay (MIC, broth dilution). The series is classed as cell-based.
Another series has as its system Escherichia coli. Nature of the series: Antibacterial activity assay (MIC, broth dilution). The series is classed as cell-based. The settings on record: MMX#-ATCC# 102.25922.
The next series relates to Pseudomonas aeruginosa. Briefly: Antibacterial activity assay (MIC, broth dilution). The format is cell-based. Particulars: MMX#-ATCC# 103-27853.
In a further series the test system is Streptococcus pneumoniae. Nature of the series: Antibacterial activity assay (MIC, broth dilution). The series is classed as cell-based.
Series [6] is described as follows: Liver microsome stability testing. The format is in vitro ADME. The settings on record: positive control; human liver microsomes. As to the method: The in vitro microsome stability assay was performed using human liver microsomes and a Biomek FXP™ liquid handling workstation to deliver reagents to a deep 96-well plate on a shaking peltier with temperature controls. Human liver microsomes were purchased from Corning™. The test compound was incubated in an aqueous reaction mixture (200 μL total volume) consisting of human liver microsomes (150 mixed donor pool) and NADPH Regenerating System Solutions A and B (Corning™) in the presence of 100 mM potassium phosphate buffer (pH 7.4). NADPH Regenerating System Solution A comprises nicotinamide adenine dinucleotide phosphate (NADP+) and glucose 6-phosphate; NADPH Regenerating System Solution B contains glucose-6-phosphate dehydrogenase. Solutions A and B were combined prior to adding to the reaction plate to generate a supply of NADPH. The NADPH was added last to initiate the reactions simultaneously. The final concentration of the test compound was 10 μM and the microsomal protein concentration was 0.5 mg/mL. […]
The half-life (t½) was calculated using the following equation:
[formula] where “slope” is the slope of the line formed by ln(% remaining test compound) vs. time. The in vitro intrinsic clearance (CLint) was calculated using equation: […]

[7] abbreviates: S. aureus USA300 (MRSA), average of two replicates, read-out: MIC SA.
[8] abbreviates: Table 16, CLSI M07-A10 dilution method, read-out: MIC S. aureus.
Where [9] appears, read: A. baumannii 2-2-2 (colistin-resistant clinical isolate), average of two replicates, read-out: MIC AB.
Where [10] appears, read: Table 16, CLSI M07-A10 dilution method, read-out: MIC A. baumannii.
[11] abbreviates: ATCC 1509 / VRE, text: E. faecium EF1509 (VRE), footnote: Enterococcus faecalis ATCC 1509, average of two replicates, read-out: MIC EF.
Where [12] appears, read: Enterococcus faecium, Table 16, CLSI M07-A10 dilution method, read-out: MIC E. faecium.
Setting [13] is: single dose of 10 mg/kg by intravenous injection in CD1 mice (n=3).
Setting [14] is: S. aureus USA300 (MRSA), average of two replicates.
The mark [15] stands for this setting: A. baumannii 2-2-2 (colistin-resistant clinical isolate), average of two replicates.

Consider `Cc1ccc(-c2cc(-c3ccc(Cl)cc3)cc(/C=C/c3ccc(N(C)CCO)cc3)[n+]2C)cc1.[I-]` [Compound 9p, (E)-4-(4-chlorophenyl)-2-(4-((2-hydroxyethyl)(methyl)amino)styryl)-1-methyl-6-(p-tolyl)pyridin-1-ium iodide], for which the MIC is 0.25 mg/L with Staphylococcus aureus (setting [7]); 0.25 mg/L in the series with Staphylococcus aureus (setting [8]); 16 mg/L in the series with Acinetobacter baumannii (setting [9]); 16 mg/L with Acinetobacter baumannii (setting [10]); 2 mg/L in the series with Enterococcus faecium (setting [11]); 2 mg/L in the series with Enterococcus faecium (setting [12]). Also, it took 5.5 mg/L to reach half-maximal cytotoxicity in [1] (HeLa cells) (CC50 at 24 h).
As to `Cc1ccc(-c2cc(-c3ccc(Br)cc3)cc(/C=C/c3ccc(N(C)C)cc3)[n+]2C)c(C)c1.[I-]` [Compound 9s, (E)-4-(4-bromophenyl)-2-(4-(dimethylamino)styryl)-6-(2,4-dimethylphenyl)-1-methylpyridin-1-ium iodide], the MIC in the series with Staphylococcus aureus (setting [7]) came out at 0.25 mg/L; with Staphylococcus aureus (setting [8]), 0.25 mg/L; in the series with Acinetobacter baumannii (setting [9]) it was 16 mg/L; in the series on Acinetobacter baumannii (setting [10]), 16 mg/L; in the series on Enterococcus faecium (setting [11]), 1 mg/L; in the series with Enterococcus faecium (setting [12]), 1 mg/L. Moreover, half-maximal cytotoxicity in series [1] (CC50 at 24 h) was put at 3.5 mg/L.
For `CCN(CC)c1ccc(/C=C/c2cc(-c3ccc(Br)cc3)cc(-c3ccc(C)c(C)c3)[n+]2C)cc1.[I-]` [Compound 9v, (E)-4-(4-bromophenyl)-2-(4-(diethylamino)styryl)-6-(3,4-dimethylphenyl)-1-methylpyridin-1-ium iodide], the MIC with Staphylococcus aureus (setting [7]) was 2 mg/L; in the series on Staphylococcus aureus (setting [8]) it was 2 mg/L; in the series with Acinetobacter baumannii (setting [9]), 4 mg/L; in the series on Acinetobacter baumannii (setting [10]), 4 mg/L; in the series on Enterococcus faecium (setting [11]), 4 mg/L; with Enterococcus faecium (setting [12]) it was 4 mg/L. This molecule also had a CC50 at 24 h in [1] (HeLa cells) of 5.5 mg/L.
In series [2] (setting [13]), `CN(CCC#N)c1ccc(/C=C/c2cc(-c3ccc(Br)cc3)cc(-c3ccc(Br)cc3)[n+]2C)cc1.[I-]` [Compound 12c] returned an AUCInf of 2.137 ± 0.455 µg·h/mL, an AUCextrap of 12.9 ± 5.6%, a Cl3 of 4.82 ± 0.996 L/h/kg and a maximum concentration (Cmax) of 3.975 ± 0.739 µg/mL. In series [2] (setting [13]), the MRT was found to be 9.13 ± 3.17 h, the T1/2 amounted to 11 ± 2.37 h and the “Vss—obs” value turned out to be 46.3 ± 23.3 L/kg. In series [3], the “Maximum Tolerated Dose (MTD)” value stood at 40 mg/kg.
As to `CC(C)C[n+]1c(/C=C/c2ccc(N(C)C)cc2)cc(-c2ccc(Br)cc2)cc1-c1ccc(Br)cc1.[I-]` [EL-1], in [4], the AUCInf was found to be 1.528 ± 0.286 µg·h/mL, the AUCextrap came to 5.15 ± 1.28%, the Cl3 amounted to 6.66 ± 1.2 L/h/kg and the “Cl—obs” value came to 6.66 ± 1.2 L/h/kg. Also, in series [4], the MRT is recorded as 4.42 ± 0.72 h and the T1/2 was 8.33 ± 0.84 h. For the same molecule, in the series on Staphylococcus aureus (setting [14]), the “MIC SA” value is 0.5 mg/L. The “MIC AB” value against Acinetobacter baumannii (setting [15]) is 4 mg/L. The “Maximum Tolerated Dose (MTD)” value in series [3] turned out to be 25 mg/kg. Also, the CC50 in the series on HeLa cells (exposure 24 hour) amounted to 5 mg/L. For the same molecule, the “Lipid II binding affinity” value in series [5] is given as “below micromolar”. Further, in the series with Enterococcus faecium (E. faecium EF1509 (VRE), average of two replicates), the “MIC EF” value stood at 1 mg/L.
For `Cc1ccc(/C=C/c2cc(-c3ccc(Br)cc3)cc(-c3ccc(Br)cc3)[n+]2C)cc1.[I-]` [EL-11], in series [4], the AUCInf amounted to 2.137 ± 0.455 µg·h/mL, the AUClast/D came out at 1853 ± 372 mg·h/mL, the “Cl—obs” value was 4.82 ± 0.996 L/h/kg and the MRT came to 9.13 ± 3.17 h. The T1/2 in [4] turned out to be 11 ± 2.37 h. This molecule also showed an AUCextrap in series [2] (single dose of 10 mg/kg by intravenous injection) of 12.9 ± 5.6%. Also, the AUClast/D in [2] (single dose of 10 mg/kg by intravenous injection, AUClast/D) was determined as 185.3 ± 37.3 ng·h/mL. In addition, in the series with Staphylococcus aureus (setting [14]), the “MIC SA” value turned out to be 1 mg/L. The “MIC AB” value in the series on Acinetobacter baumannii (setting [15]) was more than 64 mg/L. In the series on HeLa cells (exposure 24 hours), the CC50 was 5 mg/L. For the same molecule, the “Lipid II binding affinity” value in series [5] was “below micromolar”. In addition, the “MIC EF” value against Enterococcus faecium (text: E. faecium EF1509 (VRE), footnote: Enterococcus faecalis ATCC 1509, average of two replicates) is 4 mg/L.
Turning to `CC(=O)NC[C@H]1CN(c2ccc(N3CCOCC3)c(F)c2)C(=O)O1` [Linezolid, linezolid, reference compound], the MIC Enterococcus faecalis in the series on Enterococcus faecalis (MMX#-ATCC# 101-29212) was determined as 2 mg/L (≈ 5.93 µM). This molecule also had an MIC Enterococcus faecalis (VRE) with Enterococcus faecalis (MMX#-ATCC# 848-NA, vancomycin-resistant) of 2 mg/L (≈ 5.93 µM). The molecule also showed an MIC Staphylococcus aureus against Staphylococcus aureus (MMX#-ATCC# 100-29213) of 4 mg/L (≈ 11.9 µM). The molecule further displayed an MIC Staphylococcus aureus (MRSA) with Staphylococcus aureus (MMX#-ATCC# 757-NA, methicillin-resistant) of 4 mg/L (≈ 11.9 µM). In the series with Escherichia coli, this molecule yielded an MIC Escherichia coli of more than 64 mg/L. In the series with Pseudomonas aeruginosa, this molecule returned an MIC Pseudomonas aeruginosa of more than 64 mg/L. Further, the MIC Streptococcus pneumoniae (PRSP) in the series on Streptococcus pneumoniae (MMX#-ATCC# 884-NA, penicillin-resistant) worked out at 2 mg/L (≈ 5.93 µM). This molecule returned an MIC Streptococcus pneumoniae against Streptococcus pneumoniae (MMX#-ATCC# 1195-49619) of 2 mg/L (≈ 5.93 µM).
In turn, `COc1ccc2c(c1)[C@]13CCCC[C@@H]1[C@H](C2)N(C)CC3` [dextromethorphan] came in with an intrinsic clearance in series [6] of 31 µL/min/mg.
